Laboratory results reported in US11447533B2, “Antimicrobial and anticancer peptides and conjugates and compositions, methods, articles and kits relating thereto” (George Mason Research Foundation, Inc., priority 2018, dated 2022).

System: Klebsiella pneumoniae (ATCC BAA-1705)
Assay: Antimicrobial efficacy against ESKAPE pathogens
Format: cell-based
Conditions: mammalian serum
Method: Antimicrobial Studies. The phosphate buffers used for antimicrobial assays were supplemented with non-nitrogenous energy source, 0.1% (w/v) glucose. To conduct antimicrobial assays, bacterial strains were first suspended in respective buffers. E. coli (ATCC 25922) and B. cereus (ATCC 11778) were grown in MHB II up to OD600 nm˜1 and stored as frozen stock in 20% glycerol at −80° C. Occasionally they were thawed and enumerated by serial dilution and spreading on MHB II agar plates. The concentrations of the frozen stocks of E. coli and B. cereus strains were 1.0-1.1*10^8 CFU/mL with OD600 nm˜0.8. In case of other bacterial strains, they were grown on the days of experiment up to OD600 nm˜1-1.5 and then adjusted to OD600 nm˜0.8. The growth media of the drug-resistant bacterial strains were supplemented with few of the respective antibiotics against which they are resistant. 200 μL of the 0.8 OD600 nm culture were added to 10 mL of the respective buffer to obtain a suspension which was used to incubate with equal volumes of peptide solution in the same buffer.
Antimicrobial assays in different phosphate buffers and serum were conducted by adapting, with necessary modifications a fast high-throughput method based on Virtual Colony Count technique and later modified by incorporating the use of resazurin. At first serial dilution of a microbial strain in respective buffer was poured in the wells of 96 well polypropylene microplate and was then added with same volume of 2× MHB II supplemented with 80 μg/mL resazurin and incubated at 35° C. in a Gemini EM Microplate Reader (Molecular Devices) overnight with intermittent shaking. As the microbe grows it reduces non-fluorescent resazurin to fluorescent resorufin and the fluorescent intensity of each well were measured (excitation=570 nm, emission=590 nm) each 5 min for 15 hours. The time (t, min) to reach a certain fluorescence (RFU=20000 with respect to the starting fluorescence) was correlated with the initial bacterial concentration (in CFU/mL) in the particular well to obtain a calibration plot of the form: Log([Bacteria],CFU/mL)=b+m*t Equation 4: […]
To obtain antimicrobial efficacy of the peptides, 50 μL of serially diluted peptide in a buffer was incubated with 50 μL microbial suspension in the same buffer for 3 hours in black polypropylene 96 well plate. After incubation the wells were added with 100 μL of 2× MHB II supplemented with 80 μg/mL resazurin and then incubated with continuous fluorescence reading for overnight time period as described earlier. The surviving microbial population (CFU/mL) in each well were calculated by first finding the time to reach a fluorescence of RFU=20000 and the correlation (4) for the specific microbial strain and buffer. % Survival represents the proportion of viable cells in peptide treated cells relative to cells treated with the respective buffer alone. Equation 5: […]
Finally, the antimicrobial effectiveness of each peptide against the particular microbial strain in the specific buffer was determined by plotting % microbial survival as a function of the log of the concentration of the peptide and fitting the resulting data to a variable-slope sigmoidal regression model (equation 6). […]
ATRA1-R3W2-HYD, NA-CATH and PMB were evaluated for their effectiveness in mammalian serum conditions against pathogenic bacteria of both normal and drug-resistant strains. […]

## RRWKRFFKRWKGGVIGVTFPF (SEQ ID NO: 50) [ATRA1-R3W2-HYD, ATRA1-R3W2 with hydrophobic tail of NA-CATH joined by -GG-]
  antimicrobial effectiveness, in words: effective in mammalian serum
